Source: patent US11603356B2, “Amorphous form of a complement component C5a receptor” (CHEMOCENTRYX, INC., priority 2019, dated 2023)
≈ marks a conversion by molar mass, not a printed value.

How the values were obtained:
[1] = Kinetic solubility in 0.1 N HCl, FaSSGF and FeSSIF at 37° C.; format: physicochemical
Procedure: The in vitro solubility of a crystalline form of Compound 1 and the amorphous form of Compound 1 was tested.
The amorphous form was prepared as described in Example 2, Method 1, and the crystalline form of Compound 1 was prepared as described in Example 1.
Crystalline and amorphous forms of Compound 1 were saturated in three different media: 0.1 N HCl solution, Fasted State Simulated Gastric Fluid (FaSSGF), and Fed State Simulated Intestinal Fluid (FeSSIF). The samples were shaken inside a 37° C. water bath at 40 rpm. The concentration of Compound 1 dissolved in these samples was measured by HPLC at four different time points (0.5, 1, 2 and 4 hours).

[2] = Solubility in IV formulation saline/PEG400/Tween80; format: physicochemical; details: saline/PEG400/Tween80 (88:10:1)
Procedure: Intravenous (IV) formulations of a crystalline form of Compound 1 and the amorphous form of Compound 1 were prepared by contacting the amorphous of crystalline Compound 1 with saline/PEG400/Tween80 (88:10:1). The crystalline form of Compound 1 was prepared as described in Example 1, the amorphous form of Compound was prepared as described in Example 2, Method 1.

[3] = In vivo rat PK study, oral aqueous liquid suspension formulation; details: oral 10 mg/kg
Procedure: An in vivo rat PK study was conducted to compare the PK profile and bioavailability of crystalline form against amorphous form of Compound 1 in an aqueous liquid suspension formulation, which contained 0.5% w/v Hydroxypropyl Cellulose (Klucel GF grade) and 0.5% w/v Poloxamer F-68 (BASF Kolliphor P188). Each animal was orally administrated 10 mg/kg of Compound 1 at 5 mL/kg dosing volume (a dosing concentration of 2 mg/mL).

[4] = suspension in 0.5% w/v Klucel GF and 0.5% w/v Poloxamer F-68, 10 mg/kg

CCX168 Solubility at 37° C. ([1]; 0.1N HCl (pH 1.06), 0.5 Hr.): ND (ND = Not Detected)
CCX168 Solubility at 37° C. ([1]; 0.1N HCl (pH 1.06), 1 Hr.): ND (ND = Not Detected)
CCX168 Solubility at 37° C. ([1]; 0.1N HCl (pH 1.06), 2 Hr.): ND (ND = Not Detected)
CCX168 Solubility at 37° C. ([1]; 0.1N HCl (pH 1.06), 4 Hr.): ND (ND = Not Detected)
CCX168 Solubility at 37° C. ([1]; FaSSGF (pH 1.64), 0.5 Hr.): ND (ND = Not Detected)
CCX168 Solubility at 37° C. ([1]; FaSSGF (pH 1.64), 1 Hr.): ND (ND = Not Detected)
solubility at 2 h ([1]; Fasted State Simulated Gastric Fluid (FaSSGF), 37 °C, pH 1.64, fassgf or other biorelevant, thermodynamic from solid, FaSSGF (pH 1.64), 2 Hr., read-out: CCX168 Solubility at 37° C.): < 3.1 µg/mL
solubility at 4 h ([1]; Fasted State Simulated Gastric Fluid (FaSSGF), 37 °C, pH 1.64, fassgf or other biorelevant, thermodynamic from solid, FaSSGF (pH 1.64), 4 Hr., read-out: CCX168 Solubility at 37° C.): < 3.1 µg/mL
CCX168 Solubility at 37° C. ([1]; FeSSIF (pH 4.90), 1 Hr.): ND (ND = Not Detected)
CCX168 Solubility at 37° C. ([1]; FeSSIF (pH 4.90), 2 Hr.): ND (ND = Not Detected)
CCX168 Solubility at 37° C. ([1]; FeSSIF (pH 4.90), 4 Hr.): ND (ND = Not Detected)
solubility at 0.5 h ([1]; Fed State Simulated Intestinal Fluid (FeSSIF), 37 °C, pH 4.9, fessif, thermodynamic from solid, FeSSIF (pH 4.90), 0.5 Hr., read-out: CCX168 Solubility at 37° C.): < 3.1 µg/mL
Solubility in IV Formulation ([2]; 0.5 Hr.): 15.2 µg/mL (≈ 26.1 µM)
Solubility in IV Formulation ([2]; 1 Hr.): 17.2 µg/mL (≈ 29.6 µM)
Solubility in IV Formulation ([2]; 2 Hr.): 20.5 µg/mL (≈ 35.2 µM)
Solubility in IV Formulation ([2]; 4 Hr.): 21.6 µg/mL (≈ 37.1 µM)
Solubility in IV Formulation ([2]; 8 Hr.): 22.0 µg/mL (≈ 37.8 µM)
Solubility in IV Formulation ([2]; 24 Hr.): 21.9 µg/mL (≈ 37.7 µM)
Solubility in IV Formulation ([2]; 48 Hr.): 21.9 µg/mL (≈ 37.7 µM)
Solubility in IV Formulation ([2]; 96 Hr.): 21.6 µg/mL (≈ 37.1 µM)
half-life ([3]; in vivo, po, 10 mg/kg, suspension in 0.5% w/v Klucel GF and 0.5% w/v Poloxamer F-68): 234 min
MRT ([3]; in vivo, po, 10 mg/kg, suspension in 0.5% w/v Klucel GF and 0.5% w/v Poloxamer F-68, read-out: MRT): 6 h
Tmax ([3]; in vivo, po, 10 mg/kg, suspension in 0.5% w/v Klucel GF and 0.5% w/v Poloxamer F-68, read-out: Tmax): 1.5 h
AUC0-t [3, 4]: 983 ng·h/mL
AUCinf [3, 4]: 996 ng·h/mL
Cmax [3, 4]: 129 ng/mL
Compound: Cc1ccc(NC(=O)[C@H]2CCCN(C(=O)c3c(C)cccc3F)[C@H]2c2ccc(NC3CCCC3)cc2)cc1C(F)(F)F [Crystalline Compound 1, (2R,3S)-2-(4-(cyclopentylamino)phenyl)-1-(2-fluoro-6-methylbenzoyl)-N-(4-methyl-3-(trifluoromethyl)phenyl)piperidine-3-carboxamide]
